Source: US20230406859A1, “METHOTREXATE ANALOGS AND METHODS OF USE” (The United States of America, as represented by the …, priority 2020, published 2023)

Assays:
[1] = system: HBL1 cell line; assay: CellTiter-Glo cell viability (cytotox), HBL1 cell line, 72 hours; format: cell-based; details: HBL1 cell line, CellTiter-Glo; unit inferred
Description: CellTiter-Glo viability assays: Five μL of cells (2500 cells) from the 12-well plate culture were plated into white 1536-well plates (Greiner, Monroe, NC, 789173-F) in 6 replicates. CellTiter-Glo Luminescent Cell Viability Assay (CTG) (Promega, G7572), 2.5 μL/well reagent was added with a BioRAPTR FRD (Beckman Coulter, Sykesville, MD), plates were incubated in the dark at ambient temperature for 10 min, and luminescence measured with a ViewLux 1430 Ultra HTS (Perkin Elmer, Waltham, MA).

[2] = target: T1, human DHFR-HiBiT fusion protein (Homo sapiens, UniProt P00374); assay: DHFR-HiBiT assay (high-throughput DHFR abundance) in HBL1 cells; format: cell-based; details: for Dmax: % change in untreated cellular DHFR level (control), negative = degradation, positive = stabilization, HBL1, 24 h, read-out: efficacy (%)
T1 construct: expressed in transfected cells; host or cells: HBL1 cells retrovirally infected with pBMN-Ires-Lyt-2 carrying DHFR-HiBiT
T1 sequence (P00374 with tags, fused parts or gaps): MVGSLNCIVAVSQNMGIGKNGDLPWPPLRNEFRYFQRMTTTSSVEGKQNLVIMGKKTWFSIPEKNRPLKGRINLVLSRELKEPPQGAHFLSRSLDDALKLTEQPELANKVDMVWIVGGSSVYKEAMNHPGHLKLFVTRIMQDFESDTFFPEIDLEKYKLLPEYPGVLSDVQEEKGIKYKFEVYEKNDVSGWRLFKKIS
Excerpt: The human DHFR-HiBiT construct was synthetized (Bio Basic) and cloned into the retroviral vector pBMN-Ires-Lyt-2 (provided by G. Nolan, Stanford University, Stanford, CA) which expresses the coding region of mouse CD8a (Lyt-2) using the restriction sites BamHI/XhoI. All constructs were sequenced to validate authenticity. Infected cells were positively selected based on murine CD8a expression using magnetic beads (Miltenyi Biotech).
Cell culture: Human embryonic kidney HEK293T cells were maintained in DMEM (Gibco) supplemented with 10% fetal bovine serum (Hyclone), 2 mmol/L 1-glutamine, HEPES (Gibco) and 100 U/mL penicillin/streptomycin (Invitrogen). The lymphoma cell line HBL1 were maintained in RPMI (Life Technology) supplemented with 5% fetal bovine serum (Hyclone), 2 mmol/L L-glutamine, HEPES (Gibco) and 100 U/mL penicillin/streptomycin (Invitrogen).
Transfection and retroviral infections: Transfections were performed using Lipofectamine 2000 (Invitrogen) according to the manufacturer's protocol. For retroviral infections, viruses were produced in HEK293T cells and used to infect HBL1 cell line. […] Supernatants containing the retrovirus were collected and filtered at 48- and 72-hours post-transfection. HBL1 cells were centrifuged and then resuspended with the retroviral supernatant with 8 μg/ml of polybrene. The cells were spin-infected twice on consecutive days at 2,500 rpm, at RT, for 90 minutes.
Lytic HiBiT Detection: Cells were plated in solid white 1536-well tissue culture plates (Greiner), at the concentration of 2000 cells/well. After treatment, an equal volume of Nano-Glo HiBiT Lytic Reagent (Promega) containing the substrate furimazine and Large BiT (LgBiT) was added to the cells according to the manufacturer's protocol. Cells were incubated for 10 min at room temperature, and luminescence was measured using a Perkin Elmer ViewLux microplate imager with 30 seconds of exposure time.

Row | Compound | IC50 [1] | Dmax [2] | DC50 ([2]; HBL1 cells expressing DHFR-HiBiT, 24 h, degradation or stabilization potency, average of N = 2-5, read-out: Ave EC50)
1 | COC(=O)[C@H](CCC(=O)NCCCCCCCCNc1cccc2c1C(=O)N(C1CCC(=O)NC1=O)C2=O)NC(=O)c1ccc(N(C)Cc2cnc3nc(N)nc(N)c3n2)cc1 (stereo partly shown) [NCGC00687472] | 12.2 µM | 62.9% | 
2 | CN(Cc1cnc2nc(N)nc(N)c2n1)c1ccc(C(=O)N[C@@H](CCC(=O)NCCOCCOCCNc2cccc3c2C(=O)N(C2CCC(=O)NC2=O)C3=O)C(=O)O)cc1 (stereo partly shown) [NCGC00687555] | 3.93 µM | 56.9% | 
3 | COC(=O)[C@H](CCC(=O)NCCCCCCCCNc1cccc2c1C(=O)N(C1CCC(=O)NC1=O)C2=O)NC(=O)CC[C@H](NC(=O)CC[C@H](NC(=O)c1ccc(N(C)Cc2cnc3nc(N)nc(N)c3n2)cc1)C(=O)O)C(=O)OC (stereo partly drawn) [NCGC00687569, N2-(4-(((2,4-diaminopteridin-6-yl)methyl)(methyl)amino)benzoyl)-N5-((2S)-5-(((2S)-5-((8-((2-(2,6-dioxopiperidin-3-yl)-1,3-dioxoisoindolin-4-yl)amino)octyl)amino)-1-methoxy-1,5-dioxopentan-2-yl)amino)-1-methoxy-1,5-dioxopentan-2-yl)-L-glutamine] | 21.5 µM | 53.9% | 
4 | COC(=O)[C@H](CCC(=O)NCCCCCCCCNc1cccc2c1C(=O)N(C1CCC(=O)NC1=O)C2=O)NC(=O)CC[C@H](NC(=O)c1ccc(N(C)Cc2cnc3nc(N)nc(N)c3n2)cc1)C(=O)O (stereo partly shown) [NCGC00687576] | 17 µM | 62.3% | 
5 | COC(=O)[C@H](CCC(=O)NCCCCCCCCNc1cccc2c1C(=O)N(C1CCC(=O)NC1=O)C2=O)NC(=O)CC[C@H](NC(=O)CC[C@H](NC(=O)CC[C@H](NC(=O)c1ccc(N(C)Cc2cnc3nc(N)nc(N)c3n2)cc1)C(=O)O)C(=O)OC)C(=O)OC (stereo partly drawn) [NCGC00687807, (2S,7S,12S,17S)-2-(4-(((2,4-diaminopteridin-6-yl)methyl)(methyl)amino)benzamido)-29-((2-(2,6-dioxopiperidin-3-yl)-1,3-dioxoisoindolin-4-yl)amino)-7,12,17-tris(methoxycarbonyl)-5,10,15,20-tetraoxo-6,11,16,21-tetraazanonacosanoic acid] | 20.8 µM | 48.1% | 
6 | COC(=O)[C@H](CCC(=O)NCCCCCCCCNc1cccc2c1C(=O)N(C1CCC(=O)NC1=O)C2=O)NC(=O)CC[C@H](NC(=O)CC[C@H](NC(=O)CC[C@H](NC(=O)CC[C@H](NC(=O)c1ccc(N(C)Cc2cnc3nc(N)nc(N)c3n2)cc1)C(=O)O)C(=O)OC)C(=O)OC)C(=O)OC (stereo partly drawn) [NCGC00687811, (2S,7S,12S,17S,22S)-2-(4-(((2,4-diaminopteridin-6-yl)methyl)(methyl)amino)benzamido)-34-((2-(2,6-dioxopiperidin-3-yl)-1,3-dioxoisoindolin-4-yl)amino)-7,12,17,22-tetrakis(methoxycarbonyl)-5,10,15,20,25-pentaoxo-6,11,16,21,26-pentaazatetratriacontanoic acid] | 22.4 µM | 40.5% | 
7 | CN1C(=O)CCC(N2C(=O)c3cccc(NCCCCCCCCNC(=O)CC[C@H](NC(=O)c4ccc(N(C)Cc5cnc6nc(N)nc(N)c6n5)cc4)C(=O)O)c3C2=O)C1=O (stereo partly drawn) [NCGC00687847, N2-(4-(((2,4-diaminopteridin-6-yl)methyl)(methyl)amino)benzoyl)-N5-(8-((2-(1-methyl-2,6-dioxopiperidin-3-yl)-1,3-dioxoisoindolin-4-yl)amino)octyl)-L-glutamine] | 25.4 µM | -93.2% | 3 µM
8 | CN(Cc1cnc2nc(N)nc(N)c2n1)c1ccc(C(=O)N[C@@H](CCC(=O)O)C(=O)NCCOCCOCCOCCNC(=O)COc2cccc3c2C(=O)N(C2CCC(=O)NC2=O)C3=O)cc1 (stereo partly drawn) [NCGC00690069, (17S)-17-(4-(((2,4-diaminopteridin-6-yl)methyl)(methyl)amino)benzamido)-1-((2-(2,6-dioxopiperidin-3-yl)-1,3-dioxoisoindolin-4-yl)oxy)-2,16-dioxo-6,9,12-trioxa-3,15-diazaicosan-20-oic acid] | 35.8 µM |  | 
9 | CN(Cc1cnc2nc(N)nc(N)c2n1)c1ccc(C(=O)NC(CCC(=O)O)C(=O)NCCCCCCCCNc2cccc3c2C(=O)N(C2CCC(=O)NC2=O)C3=O)cc1 (stereo not shown) [NCGC00690075, 4-(4-(((2,4-diaminopteridin-6-yl)methyl)(methyl)amino)benzamido)-5-((8-((2-(2,6-dioxopiperidin-3-yl)-1,3-dioxoisoindolin-4-yl)amino)octyl)amino)-5-oxopentanoic acid] | 70 µM |  | 
10 | Nc1nc(N)c2nc(CN(CCCCCCNC(=O)CCOCCOCCOCCOCCOc3cccc4c3C(=O)N(C3CCC(=O)NC3=O)C4=O)c3ccc(C(=O)N[C@@H](CCC(=O)O)C(=O)O)cc3)cnc2n1 (stereo partly shown) [NCGC00690395, (4-(((2,4-diaminopteridin-6-yl)methyl)(1-((2-(2,6-dioxopiperidin-3-yl)-1,3-dioxoisoindolin-4-yl)oxy)-15-oxo-3,6,9,12-tetraoxa-16-azadocosan-22-yl)amino)benzoyl)glutamic acid] | 33.4 µM | 32.8% | 
11 | Nc1nc(N)c2nc(CN(CCCCCCNC(=O)COc3cccc4c3C(=O)N(C3CCC(=O)NC3=O)C4=O)c3ccc(C(=O)N[C@@H](CCC(=O)O)C(=O)O)cc3)cnc2n1 (stereo partly shown) [NCGC00690396, (4-(((2,4-diaminopteridin-6-yl)methyl)(6-(2-((2-(2,6-dioxopiperidin-3-yl)-1,3-dioxoisoindolin-4-yl)oxy)acetamido)hexyl)amino)benzoyl)glutamic acid] | 26.6 µM |  | 
12 | Cc1ncsc1-c1ccc(CNC(=O)[C@@H]2C[C@@H](O)CN2C(=O)C(NC(=O)CCOCCOCCC(=O)NCCCCCCN(Cc2cnc3nc(N)nc(N)c3n2)c2ccc(C(=O)N[C@@H](CCC(=O)O)C(=O)O)cc2)C(C)(C)C)cc1 (stereo partly drawn) [NCGC00690397, (4-(((2,4-diaminopteridin-6-yl)methyl)(3-((2S,4R)-4-hydroxy-2-((4-(4-methylthiazol-5-yl)benzyl)carbamoyl)pyrrolidine-1-carbonyl)-2,2-dimethyl-5,14-dioxo-8,11-dioxa-4,15-diazahenicosan-21-yl)amino)benzoyl)glutamic acid] | 28.7 µM | 64.1% | 
13 | Cc1ncsc1-c1ccc(CNC(=O)[C@@H]2C[C@@H](O)CN2C(=O)C(NC(=O)CCOCCOCCOCCOCCC(=O)NCCCCCCN(Cc2cnc3nc(N)nc(N)c3n2)c2ccc(C(=O)N[C@@H](CCC(=O)O)C(=O)O)cc2)C(C)(C)C)cc1 (stereo partly drawn) [NCGC00690398, (4-(((2,4-diaminopteridin-6-yl)methyl)(3-((2S,4R)-4-hydroxy-2-((4-(4-methylthiazol-5-yl)benzyl)carbamoyl)pyrrolidine-1-carbonyl)-2,2-dimethyl-5,20-dioxo-8,11,14,17-tetraoxa-4,21-diazaheptacosan-27-yl)amino)benzoyl)glutamic acid] | 36.7 µM | 26% | 
14 | CN(Cc1cnc2nc(N)nc(N)c2n1)c1ccc(C(=O)N[C@@H](CCC(=O)O)C(=O)NCCOCCOCCNc2cccc3c2C(=O)N(C2CCC(=O)NC2=O)C3=O)cc1 (stereo partly drawn) [NCGC00690407, (4S)-4-(4-(((2,4-diaminopteridin-6-yl)methyl)(methyl)amino)benzamido)-5-((2-(2-(2-((2-(2,6-dioxopiperidin-3-yl)-1,3-dioxoisoindolin-4-yl)amino)ethoxy)ethoxy)ethyl)amino)-5-oxopentanoic acid] | 32.9 µM |  | 
15 | CN(Cc1cnc2nc(N)nc(N)c2n1)c1ccc(C(=O)N[C@@H](CCC(=O)O)C(=O)NCCCNc2cccc3c2C(=O)N(C2CCC(=O)NC2=O)C3=O)cc1 (stereo partly drawn) [NCGC00690412, (4S)-4-(4-(((2,4-diaminopteridin-6-yl)methyl)(methyl)amino)benzamido)-5-((3-((2-(2,6-dioxopiperidin-3-yl)-1,3-dioxoisoindolin-4-yl)amino)propyl)amino)-5-oxopentanoic acid] | 38.6 µM |  | 
16 | COC(=O)[C@H](CCC(=O)NCCOCCOCCOCCNC(=O)COc1cccc2c1C(=O)N(C1CCC(=O)NC1=O)C2=O)NC(=O)c1ccc(N(C)Cc2cnc3nc(N)nc(N)c3n2)cc1 (stereo partly drawn) [NCGC00842394, Methyl (19S)-19-(4-(((2,4-diaminopteridin-6-yl)methyl)(methyl)amino)benzamido)-1-((2-(2,6-dioxopiperidin-3-yl)-1,3-dioxoisoindolin-4-yl)oxy)-2,16-dioxo-6,9,12-trioxa-3,15-diazaicosan-20-oate] | 33.9 µM | 27.6% | 
